From patent US9889135B2, “Companion diagnostic for CDK4 inhibitors” (Memorial Sloan-Kettering Cancer Center, priority 2013, dated 2018)
Peptide text beside a SMILES is read from it. * marks the point of attachment. Cbz = O=C(OCc1ccccc1)*

Key:
[1] = tested on: LS8817 cells; experiment: doxorubicin effect on LS8817 cells; format: cell-based, human
[2] = tested on: WD/DDLS cell lines; experiment: annexin V staining (apoptosis); format: cell-based, human; settings: nutlin-3a, forty-eight hours; LS8817, LS0082, LS8107 and LS7785-1
Procedure: FIG. 1A-C. […] Mean percentage of BrdU incorporation or annexin V+/7-AAD− cells was calculated from three or more independent experiments. Error bars represent standard deviation (*p<0.05).
(§1) FIG. 13A-B. Nutlin-3a induces apoptosis in all the liposarcoma cell lines. The indicated cell lines were treated with nutlin-3a or vehicle control and extracts were prepared for immunoblotting (A) or annexin V staining (B) forty-eight hours after treatment. Mean percentage of annexin V+/7-AAD− cells was calculated from three or more independent experiments. Error bars represent standard deviation (*p<0.05).
Cells were stained with BrdU (20 μM for two hours) or annexin V as previously described (22, 48). […] was determined by staining with propidium iodine and FACS analyses (49).

[3] = tested on: WD/DDLS cells; settings: Ambrosini et al., 2007, Singer et al.; cited from earlier work
[4] = tested on: MDM2 and p21 in LS8817, LS0082, LS8107 and LS7785-1 cells; experiment: p53 targets by immunoblot after nutlin-3a; format: cell-based, human; settings: forty-eight hours; all of the cell lines
Procedure: as §1, with “The” for “FIG. 13A-B. Nutlin-3a induces apoptosis in all the liposarcoma cell lines. The”

[5] = tested on: MDM2 in LS8817 and LS141 cells; experiment: MDM2 level after proteasome inhibition in PD0332991 treated cells; format: cell-based, human; settings: 10 μM MG132 added to cells treated with PD0332991 for two days

COc1cccc2c1C(=O)c1c(O)c3c(c(O)c1C2=O)C[C@@](O)(C(=O)CO)C[C@@H]3O[C@H]1C[C@H](N)[C@H](O)[C@H](C)O1 [doxorubicin]
MDM2 levels [1]: without a reduction
p53 [1]: accumulation
senescence [1]: entry of the LS8817 cells into senescence

COc1ccc(C2=N[C@@H](c3ccc(Cl)cc3)[C@@H](c3ccc(Cl)cc3)N2C(=O)N2CCNC(=O)C2)c(OC(C)C)c1 [nutlin-3a]
percentage of annexin V stained apoptotic cells [2]: increased
cell response to nutlin-3a [3]: growth arrest, p53 accumulation and apoptosis
p53 targets, MDM2 and p21 [4]: increased

CC(C)C[C@@H](C=O)NC(=O)[C@H](CC(C)C)NC(=O)[C@H](CC(C)C)NC(=O)OCc1ccccc1 [MG132] (Cbz-Leu-Leu-Leu-aldehyde)
MDM2 level after addition of MG132 [5]: re-accumulation
